Results from ChEMBL document CHEMBL4138206, “Acovenoside A Induces Mitotic Catastrophe Followed by Apoptosis in Non-Small-Cell Lung Cancer Cells” (J Nat Prod, 2017).
Activity calls are given as the source filed them. The rule behind the calls is not given here.

Assays:
A549 [1] = experiment: Induction of mitochondrial dysfunction in human A549 cells assessed as cell population with mitochondrial potential loss at 100 nM after 48 hrs by JC-1 staining based flow cytometry (reference value: 7%); assay type: functional
A549 [2] = experiment: Induction of mitochondrial dysfunction in human A549 cells assessed as cell population with intact mitochondrial potential at 100 nM after 48 hrs by JC-1 staining based flow cytometry (reference value: 7%); assay type: functional
CAL-12T [3] = experiment: Cell cycle arrest in human CAL-12T cells at 50 to 100 nM after 24 hrs by propidium iodide staining based flow cytometry; assay type: functional
A549 [4] = experiment: Cytotoxicity against human A549 cells assessed as reduction in cell viability pretreated with ROS scavenger edaravone for 1 hr followed by compound addition measured after 24 hrs by XTT assay; assay type: functional, cell-based
A549 [5] = experiment: Induction of apoptosis in human A549 cells assessed as activation of caspase 3/7 at 100 nM after 48 hrs using Z-DEVD-R110 as substrate by flow cytometry (reference value: 9%); assay type: functional
A549 [6] = experiment: Cell cycle arrest in human A549 cells assessed as accumulation at G0/G1 phase at 50 nM after 24 hrs by propidium iodide staining based flow cytometry (reference value: 61%); assay type: functional
A549 [7] = experiment: Induction of mitochondrial dysfunction in human A549 cells assessed as cell population with intact mitochondrial potential at 50 nM after 48 hrs by JC-1 staining based flow cytometry (reference value: 7%); assay type: functional
[8] = biological target: T1, Cyclin-dependent kinase 1/cyclin B1 (Homo sapiens) (UniProt P06493+P14635); experiment: Activation of CDK1/cyclinB1 in human A549 cells at 100 nM after 24 hrs by western blot analysis; assay type: cell-based
T1 sequence (P06493 whole entry, looked up): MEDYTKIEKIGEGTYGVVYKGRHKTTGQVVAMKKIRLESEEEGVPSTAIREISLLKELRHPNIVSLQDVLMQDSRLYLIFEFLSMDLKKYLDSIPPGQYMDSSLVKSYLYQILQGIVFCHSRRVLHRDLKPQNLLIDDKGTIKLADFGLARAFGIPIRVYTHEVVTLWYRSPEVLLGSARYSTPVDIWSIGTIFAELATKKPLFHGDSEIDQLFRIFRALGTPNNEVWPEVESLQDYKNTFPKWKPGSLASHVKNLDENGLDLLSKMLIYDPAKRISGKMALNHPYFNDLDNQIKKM
T1 sequence (P14635 whole entry, looked up): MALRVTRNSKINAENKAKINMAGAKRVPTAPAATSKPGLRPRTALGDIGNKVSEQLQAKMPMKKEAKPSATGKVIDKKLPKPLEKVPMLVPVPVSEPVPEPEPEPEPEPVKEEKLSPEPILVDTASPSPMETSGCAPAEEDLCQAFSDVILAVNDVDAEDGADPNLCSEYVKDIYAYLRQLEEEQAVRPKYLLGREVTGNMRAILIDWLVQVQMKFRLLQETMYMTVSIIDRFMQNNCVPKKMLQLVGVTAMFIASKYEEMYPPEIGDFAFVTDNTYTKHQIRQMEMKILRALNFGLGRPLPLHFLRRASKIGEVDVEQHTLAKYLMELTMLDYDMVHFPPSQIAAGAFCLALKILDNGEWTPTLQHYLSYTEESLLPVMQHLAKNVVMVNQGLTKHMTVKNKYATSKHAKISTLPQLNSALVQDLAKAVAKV

MDA-MB-231 [9] = experiment: Cytotoxicity against human MDA-MB-231 cells assessed as reduction in cell viability after 24 hrs by XTT assay; assay type: functional, cell-based; conditions: MDA-MB-231, 24 h
A549 [10] = experiment: Induction of intracellular ROS production in human A549 cells at 100 nM after 48 hrs by H2DCFDA staining based flow cytometry relative to control; assay type: functional
HCC827 [11] = experiment: Cell cycle arrest in human HCC827 cells at 50 to 100 nM after 24 hrs by propidium iodide staining based flow cytometry; assay type: functional
[12] = biological target: T1, Cyclin-dependent kinase 1/cyclin B1 (Homo sapiens); experiment: Activation of CDK1/cyclinB1 in human A549 cells at 50 to 100 nM after 12 hrs by western blot analysis; assay type: cell-based
A549 [13] = experiment: Induction of mitotic catastrophe in human A549 cells assessed as population of cells showing increase in size at 100 nM after 24 hrs by flow cytometry (reference value: 5.7%); assay type: functional
CAL-12T [14] = experiment: Induction of apoptosis in human CAL-12T cells assessed as increase in hypodiploid DNA content at 50 to 100 nM after 72 hrs by propidium iodide staining flow cytometry; assay type: functional, cell-based
A549 [15] = experiment: Cell cycle arrest in human A549 cells assessed as accumulation at G2/M phase at 100 nM after 24 hrs by propidium iodide staining based flow cytometry (reference value: 18%); assay type: functional
[16] = biological target: Cyclin-dependent kinase 1 (Homo sapiens) (UniProt P06493); experiment: Activation of CDK1 in human A549 cells assessed as increase in CDK1 phosphorylation at Tyr15 residues at 100 nM after 24 hrs by western blot analysis; assay type: cell-based
Cyclin-dependent kinase 1 (Homo sapiens), sequence (P06493 whole entry, looked up): as the sequence (P06493 whole entry, looked up) above

A549 [17] = experiment: Induction of mitochondrial dysfunction in human A549 cells assessed as cell population with mitochondrial potential loss at 50 nM after 48 hrs by JC-1 staining based flow cytometry (reference value: 7%); assay type: functional
A549 [18] = experiment: Cell cycle arrest in human A549 cells assessed as accumulation at G2/M phase at 50 nM after 24 hrs by propidium iodide staining based flow cytometry (reference value: 18%); assay type: functional
A549 [19] = experiment: Induction of intracellular ROS production in human A549 cells at 50 nM after 48 hrs by H2DCFDA staining based flow cytometry relative to control; assay type: functional
A549 [20] = experiment: Induction of mitochondrial dysfunction in human A549 cells assessed as decrease in ratio of red to green fluorescence intensity at 100 nM after 48 hrs by JC-1 staining based flow cytometry; assay type: functional; parameters: scale not given: the % may be the effect or the level left
HCC827 [21] = experiment: Induction of apoptosis in human HCC827 cells assessed as increase in hypodiploid DNA content at 50 to 100 nM after 72 hrs by propidium iodide staining flow cytometry; assay type: functional, cell-based
A549 [22] = experiment: Induction of apoptosis in human A549 cells assessed as hypodiploid DNA content at 10 nM after 72 hrs by propidium iodide staining flow cytometry (reference value: 3 to 4%); assay type: functional
A549 [23] = experiment: Cytotoxicity against human A549 cells assessed as reduction in cell viability pretreated with ROS scavenger tempol for 1 hr followed by compound addition measured after 24 hrs by XTT assay; assay type: functional, cell-based
MDA-MB-231 [24] = experiment: Cytotoxicity against human MDA-MB-231 cells assessed as reduction in cell viability after 48 hrs by XTT assay; assay type: functional, cell-based; conditions: MDA-MB-231, 48 h
CAL-12T [25] = experiment: Cytotoxicity against human CAL-12T cells assessed as reduction in cell viability after 48 hrs by XTT assay; assay type: functional, cell-based
HCC827 [26] = experiment: Cytotoxicity against human HCC827 cells assessed as reduction in cell viability after 48 hrs by XTT assay; assay type: functional, cell-based; conditions: HCC827, 48 h
A549 [27] = experiment: Cell cycle arrest in human A549 cells assessed as accumulation at G0/G1 phase at 100 nM after 24 hrs by propidium iodide staining based flow cytometry (reference value: 61%); assay type: functional
A549 [28] = experiment: Induction of apoptosis in human A549 cells assessed as hypodiploid DNA content at 100 nM after 72 hrs by propidium iodide staining flow cytometry (reference value: 3 to 4%); assay type: functional
[29] = biological target: T1, Cyclin-dependent kinase 1/cyclin B1 (Homo sapiens); experiment: Activation of CDK1/cyclinB1 in human A549 cells assessed as increase in cytokinesis defects at 100 nM after 24 hrs by DAPI staining based assay; assay type: cell-based
A549 [30] = experiment: Induction of mitochondrial dysfunction in human A549 cells assessed as decrease in ratio of red to green fluorescence intensity at 50 nM after 48 hrs by JC-1 staining based flow cytometry; assay type: functional; parameters: scale not given: the % may be the effect or the level left
A549 [31] = experiment: Cell cycle arrest in human A549 cells assessed as accumulation at G2/M phase after 24 hrs by propidium iodide staining based flow cytometry; assay type: functional
MRC5 = experiment: Cytotoxicity against human MRC5 cells assessed as reduction in cell viability after 24 hrs by XTT assay; assay type: cell-based; conditions: MRC5, 24 h
PBMC = experiment: Cytotoxicity against human PBMC cells assessed as reduction in cell viability after 48 hrs by XTT assay; assay type: cell-based
A549 [32] = experiment: Cytotoxicity against human A549 cells assessed as reduction in cell viability after 24 hrs by XTT assay; assay type: functional, cell-based; conditions: A549, 24 h
A549 [33] = experiment: Induction of apoptosis in human A549 cells assessed as hypodiploid DNA content at 50 nM after 72 hrs by propidium iodide staining flow cytometry (reference value: 3 to 4%); assay type: functional
A549 [34] = experiment: Induction of apoptosis in human A549 cells assessed as activation of caspase 3/7 at 50 nM after 48 hrs using Z-DEVD-R110 as substrate by flow cytometry (reference value: 9%); assay type: functional
A549 [35] = experiment: Cytotoxicity against human A549 cells assessed as reduction in cell viability after 48 hrs by XTT assay; assay type: functional, cell-based; conditions: A549, 48 h
A549 [36] = experiment: Cytotoxicity against human A549 cells assessed as reduction in cell viability pretreated with ROS scavenger ebselen for 1 hr followed by compound addition measured after 24 hrs by XTT assay; assay type: functional, cell-based
A549 [37] = experiment: Induction of apoptosis in human A549 cells assessed as activation of caspase 3/7 after 48 hrs by flow cytometry; assay type: functional, cell-based

SMILES: COc1cccc2c1C(=O)c1c(O)c3c(c(O)c1C2=O)C[C@@](O)(C(=O)CO)C[C@@H]3O[C@H]1C[C@H](N)[C@H](O)[C@H](C)O1 [DOXORUBICIN]
- Activity (A549 [1]): 8.2%
- Activity (A549 [2]): 12.4%

SMILES: CO[C@H]1[C@H](O)[C@H](O[C@@H]2C[C@H]3CC[C@@H]4[C@H](CC[C@]5(C)[C@@H](C6=CC(=O)OC6)CC[C@]45O)[C@@]3(C)[C@H](O)C2)O[C@@H](C)[C@@H]1O
- Activity (CAL-12T [3]): Active
- Activity (A549 [4]): Active
- Activity (A549 [5]): 65%
- Activity (A549 [6]): 50%
- Activity (A549 [7]): 9%
- Activity [8]: Active
- IC50 (MDA-MB-231 [9]): 4200 nM
- Activity (A549 [1]): 9%
- fold change (FC) (A549 [10]): 2.8
- Activity (HCC827 [11]): inactive
- Activity [12]: Active
- Activity (A549 [13]): 29.8%
- Activity (CAL-12T [14]): Active
- Activity (A549 [15]): 43%
- Activity [16]: Active
- Activity (A549 [17]): 8.8%
- Activity (A549 [18]): 29%
- fold change (FC) (A549 [19]): 1.5
- Activity (A549 [20]): 40%
- Activity (HCC827 [21]): Active
- Activity (A549 [22]): 3%
- Activity (A549 [23]): Active
- IC50 (MDA-MB-231 [24]): 1500 nM
- IC50 (CAL-12T [25]): 161 nM
- IC50 (HCC827 [26]): 701 nM
- Activity (A549 [27]): 31%
- Activity (A549 [28]): 51 - 55%
- Activity [29]: 34.3%
- Activity (A549 [30]): 20%
- Activity (A549 [31]): Dose-dependent effect
- IC50 (MRC5): > 1000 nM
- Activity (A549 [2]): 13.9%
- Activity (PBMC): Non-Toxic
- IC50 (A549 [32]): 95 nM
- Activity (A549 [33]): 13 - 17%
- Activity (A549 [34]): 38%
- IC50 (A549 [35]): 68 nM
- Activity (A549 [36]): Active
- Activity (A549 [37]): Dose-dependent effect
